Where two headings read alike, the source gives them in different places. Square brackets hold non-standard residues; d marks the D form. Peptide text beside a SMILES is read from it. * marks the point of attachment. Adamantane1carbonyl = O=C(C12CC3CC(CC(C3)C1)C2)*; Benzoyl(4-CF3) = O=C(c1ccc(C(F)(F)F)cc1)*; NH((S)CH(Me)CH2NMe2) = C[C@@H](CN(C)C)N*; Benzoyl(4-OMe) = COc1ccc(C(=O)*)cc1; Gly(octyl) = CCCCCCCC[C@H](N)C(=O)O; Oxazole4CO(2-Me) = Cc1nc(C(=O)*)co1; Thiophene2carbonyl = O=C(c1cccs1)*; Benzoyl(4-F) = O=C(c1ccc(F)cc1)*; hCha = N[C@@H](CCC1CCCCC1)C(=O)O; X7 = O=C(c1ccc2[nH]ccc2c1)*; X3 = C[C@@H](CN1CCOCC1)N*; X5 = O=C(C1CCc2ccccc2C1)*; X9 = O=C(c1ccc2ocnc2c1)*; Aib = CC(C)(N)C(=O)O; βAla = NCCC(=O)O
Assays:
[1] = test system: axenic Leishmania donovani MHOM-ET-67/L82 amastigotes; assay: In vitro antiprotozoal assay, axenic amastigotes; assay type: cell-based; conditions: axenic amastigotes; read-out: L.don.ax. IC50
Method: (§1) The testing of the inventive compounds against Leishmania donovani (strain MHOM/ET/67/L82) was performed in 96 well plates at concentrations in serial dilutions. Tests were done in triplicate.

[2] = test system: intracellular Leishmania donovani MHOM-ET-67/L82 amastigotes; assay: In vitro antiprotozoal assay, intracellular amastigotes; assay type: cell-based; conditions: intracellular amastigotes; read-out: L.don.InMac IC50
Method: as §1

[3] = Cytotoxicity assay (Alamar Blue) on L6-cells; assay type: cell-based, rat
Method: Tests were done in triplicate.
The plates were incubated for additional 2 h.

SMILES | IC50 [1] [nM] | IC50 [2] [nM] | IC50 at 68 h ([3]; rat) [nM] | IC50 at 68 h ([3]; rat myoblast L6 cells, read-out: Cytotox L6 IC50) [nM]
CCCCCCCC[C@H](NC(=O)[C@@H]1CCCN1C(=O)C12CC3CC(CC(C3)C1)C2)C(=O)N[C@@H](CC(C)C)C(=O)NC(C)(C)C(=O)N[C@@H](CC(C)C)C(=O)N[C@@H](CC(C)C)C(=O)NC(C)(C)C(=O)NC(C)(C)C(=O)NCCC(=O)N[C@@H](C)CN(C)C [Compound 5770, (2S)-2-{[(2S)-1-(adamantane-1-carbonyl)pyrrolidin-2-yl]formamido}-N-[(1S)-1-[(1-{[(1S)-1-{[(1S)-1-{[1-({1-[(2-{[(2S)-1-(dimethylamino)propan-2-yl]carbamoyl}ethyl)carbamoyl]-1-methylethyl}carbamoyl)-1-methylethyl]carbamoyl}-3-methylbutyl]carbamoyl}-3-methylbutyl]carbamoyl}-1-methylethyl)carbamoyl]-3-methylbutyl]decanamide] (Adamantane1carbonyl-P[Gly(octyl)]L[Aib]LL[Aib][Aib][βAla]-{NH((S)CH(Me)CH2NMe2)}) | 1 | 338 | 185 | –
CCCCCCCC[C@H](NC(=O)[C@@H]1CCCN1C(=O)c1cccs1)C(=O)N[C@@H](CC(C)C)C(=O)NC(C)(C)C(=O)N[C@@H](CC(C)C)C(=O)N[C@@H](CC(C)C)C(=O)NC(C)(C)C(=O)NC(C)(C)C(=O)NCCC(=O)N[C@@H](C)CN(C)C [Compound 5904, (2S)-N-[(1S)-1-[(1-{[(1S)-1-{[(1S)-1-{[1-({1-[(2-{[(2S)-1-(dimethylamino)propan-2-yl]carbamoyl}ethyl)carbamoyl]-1-methylethyl}carbamoyl)-1-methylethyl]carbamoyl}-3-methylbutyl]carbamoyl}-3-methylbutyl]carbamoyl}-1-methylethyl)carbamoyl]-3-methylbutyl]-2-{[(2S)-1-(thiophene-2-carbonyl)pyrrolidin-2-yl]formamido}decanamide] (Thiophene2carbonyl-P[Gly(octyl)]L[Aib]LL[Aib][Aib][βAla]-{NH((S)CH(Me)CH2NMe2)}) | 3.1 | 11.4 | – | 216
CCCCCCCC[C@H](NC(=O)[C@@H]1CCCN1C(=O)c1coc(C)n1)C(=O)N[C@@H](CC(C)C)C(=O)NC(C)(C)C(=O)N[C@@H](CC(C)C)C(=O)N[C@@H](CC(C)C)C(=O)NC(C)(C)C(=O)NC(C)(C)C(=O)NCCC(=O)N[C@@H](C)CN(C)C [Compound 5905, (2S)-N-[(1S)-1-[(1-{[(1S)-1-{[(1S)-1-{[1-({1-[(2-{[(2S)-1-(dimethylamino)propan-2-yl]carbamoyl}ethyl)carbamoyl]-1-methylethyl}carbamoyl)-1-methylethyl]carbamoyl}-3-methylbutyl]carbamoyl}-3-methylbutyl]carbamoyl}-1-methylethyl)carbamoyl]-3-methylbutyl]-2-{[(2S)-1-(2-methyl-1,3-oxazole-4-carbonyl)pyrrolidin-2-yl]formamido}decanamide] ({Oxazole4CO(2-Me)}-P[Gly(octyl)]L[Aib]LL[Aib][Aib][βAla]-{NH((S)CH(Me)CH2NMe2)}) | 7.9 | 13.1 | 852 | –
CCCCCCCC[C@H](NC(=O)[C@@H]1CCCN1C(=O)C1CCc2ccccc2C1)C(=O)N[C@@H](CC(C)C)C(=O)NC(C)(C)C(=O)N[C@@H](CC(C)C)C(=O)N[C@@H](CC(C)C)C(=O)NC(C)(C)C(=O)NC(C)(C)C(=O)NCCC(=O)N[C@@H](C)CN(C)C (stereo partly drawn) [Compound 5910, (2S)—N-[(1S)-1-[(1-{[(1S)-1-{[(1S)-1-{[1-({1-[(2-{[(2S)-1-(dimethylamino)propan-2-yl]carbamoyl}ethyl)carbamoyl]-1-methylethyl}carbamoyl)-1-methylethyl]carbamoyl}-3-methylbutyl]carbamoyl}-3-methylbutyl]carbamoyl}-1-methylethyl)carbamoyl]-3-methylbutyl]-2-{[(2S)-1-(1,2,3,4-tetrahydronaphthalene-2-carbonyl)pyrrolidin-2-yl]formamido}decanamide] (X5-P[Gly(octyl)]L[Aib]LL[Aib][Aib][βAla]-{NH((S)CH(Me)CH2NMe2)}) | 2.1 | 6.7 | 230 | –
CCCCCCCC[C@H](NC(=O)[C@@H]1CCCN1C(=O)c1ccc2[nH]ccc2c1)C(=O)N[C@@H](CC(C)C)C(=O)NC(C)(C)C(=O)N[C@@H](CC(C)C)C(=O)N[C@@H](CC(C)C)C(=O)NC(C)(C)C(=O)NC(C)(C)C(=O)NCCC(=O)N[C@@H](C)CN(C)C [Compound 5911, (2S)—N-[(1S)-1-[(1-{[(1S)-1-{[(1S)-1-{[1-({1-[(2-{[(2S)-1-(dimethylamino)propan-2-yl]carbamoyl}ethyl)carbamoyl]-1-methylethyl}carbamoyl)-1-methylethyl]carbamoyl}-3-methylbutyl]carbamoyl}-3-methylbutyl]carbamoyl}-1-methylethyl)carbamoyl]-3-methylbutyl]-2-{[(2S)-1-(1H-indole-5-carbonyl)pyrrolidin-2-yl]formamido}decanamide] (X7-P[Gly(octyl)]L[Aib]LL[Aib][Aib][βAla]-{NH((S)CH(Me)CH2NMe2)}) | 14.4 | 34.8 | 457 | –
CCCCCCCC[C@H](NC(=O)[C@@H]1CCCN1C(=O)c1ccc(OC)cc1)C(=O)N[C@@H](CC(C)C)C(=O)NC(C)(C)C(=O)N[C@@H](CC(C)C)C(=O)N[C@@H](CC(C)C)C(=O)NC(C)(C)C(=O)NC(C)(C)C(=O)NCCC(=O)N[C@@H](C)CN(C)C [Compound 5912, (2S)—N-[(1S)-1-[(1-{[(1S)-1-{[(1S)-1-{[1-({1-[(2-{[(2S)-1-(dimethylamino)propan-2-yl]carbamoyl}ethyl)carbamoyl]-1-methylethyl}carbamoyl)-1-methylethyl]carbamoyl}-3-methylbutyl]carbamoyl}-3-methylbutyl]carbamoyl}-1-methylethyl)carbamoyl]-3-methylbutyl]-2-{[(2S)-1-(4-methoxybenzoyl)pyrrolidin-2-yl]formamido}decanamide] ({Benzoyl(4-OMe)}-P[Gly(octyl)]L[Aib]LL[Aib][Aib][βAla]-{NH((S)CH(Me)CH2NMe2)}) | 5.1 | 12.8 | 254 | –
CCCCCCCC[C@H](NC(=O)[C@@H]1CCCN1C(=O)c1ccc(C(F)(F)F)cc1)C(=O)N[C@@H](CC(C)C)C(=O)NC(C)(C)C(=O)N[C@@H](CC(C)C)C(=O)N[C@@H](CC(C)C)C(=O)NC(C)(C)C(=O)NC(C)(C)C(=O)NCCC(=O)N[C@@H](C)CN(C)C [Compound 5936, (2S)-N-[(1S)-1-[(1-{[(1S)-1-{[(1S)-1-{[1-({1-[(2-{[(2S)-1-(dimethylamino)propan-2-yl]carbamoyl}ethyl)carbamoyl]-1-methylethyl}carbamoyl)-1-methylethyl]carbamoyl}-3-methylbutyl]carbamoyl}-3-methylbutyl]carbamoyl}-1-methylethyl)carbamoyl]-3-methylbutyl]-2-{[(2S)-1-[4-(trifluoromethyl)benzoyl]pyrrolidin-2-yl]formamido}decanamide] ({Benzoyl(4-CF3)}-P[Gly(octyl)]L[Aib]LL[Aib][Aib][βAla]-{NH((S)CH(Me)CH2NMe2)}) | 3.3 | < 33.2 | 411 | –
CCCCCCCC[C@H](NC(=O)[C@@H]1CCCN1C(=O)c1ccc2ocnc2c1)C(=O)N[C@@H](CC(C)C)C(=O)NC(C)(C)C(=O)N[C@@H](CC(C)C)C(=O)N[C@@H](CC(C)C)C(=O)NC(C)(C)C(=O)NC(C)(C)C(=O)NCCC(=O)N[C@@H](C)CN(C)C [Compound 5937, (2S)-2-{[(2S)-1-(1,3-benzoxazole-5-carbonyl)pyrrolidin-2-yl]formamido}-N-[(1S)-1-[(1-{[(1S)-1-{[(1S)-1-{[1-({1-[(2-{[(2S)-1-(dimethylamino)propan-2-yl]carbamoyl}ethyl)carbamoyl]-1-methylethyl}carbamoyl)-1-methylethyl]carbamoyl}-3-methylbutyl]carbamoyl}-3-methylbutyl]carbamoyl}-1-methylethyl)carbamoyl]-3-methylbutyl]decanamide] (X9-P[Gly(octyl)]L[Aib]LL[Aib][Aib][βAla]-{NH((S)CH(Me)CH2NMe2)}) | 21.2 | 58.5 | 1160 | –
Cc1nc(C(=O)N2CCC[C@H]2C(=O)N[C@@H](CCC2CCCCC2)C(=O)N[C@@H](CC(C)C)C(=O)NC(C)(C)C(=O)N[C@@H](CC(C)C)C(=O)N[C@@H](CC(C)C)C(=O)NC(C)(C)C(=O)NC(C)(C)C(=O)NCCC(=O)N[C@@H](C)CN2CCOCC2)co1 [Compound 6026, (2S)-2-[(2S)-2-{2-[(2S)-2-[(2S)-4-cyclohexyl-2-{[(2S)-1-(2-methyl-1,3-oxazole-4-carbonyl)pyrrolidin-2-yl]formamido}butanamido]-4-methylpentanamido]-2-methylpropanamido}-4-methylpentanamido]-4-methyl-N-[1-methyl-1-({1-methyl-1-[(2-{[(2S)-1-(morpholin-4-yl)propan-2-yl]carbamoyl}ethyl)carbamoyl]ethyl}carbamoyl)ethyl]pentanamide] ({Oxazole4CO(2-Me)}-P[hCha]L[Aib]LL[Aib][Aib][βAla]-X3) | 4.2 | 50.7 | 1580 | –
CC(C)C[C@H](NC(=O)[C@H](CCC1CCCCC1)NC(=O)[C@@H]1CCCN1C(=O)c1ccc(F)cc1)C(=O)NC(C)(C)C(=O)N[C@@H](CC(C)C)C(=O)N[C@@H](CC(C)C)C(=O)NC(C)(C)C(=O)NC(C)(C)C(=O)NCCC(=O)N[C@@H](C)CN1CCOCC1 [Compound 6028, (2S)-2-[(2S)-2-{2-[(2S)-2-[(2S)-4-cyclohexyl-2-{[(2S)-1-(4-fluorobenzoyl)pyrrolidin-2-yl]formamido}butanamido]-4-methylpentanamido]-2-methylpropanamido}-4-methylpentanamido]-4-methyl-N-[1-methyl-1-({1-methyl-1-[(2-{[(2S)-1-(morpholin-4-yl)propan-2-yl]carbamoyl}ethyl)carbamoyl]ethyl}carbamoyl)ethyl]pentanamide] ({Benzoyl(4-F)}-P[hCha]L[Aib]LL[Aib][Aib][βAla]-X3) | 3.3 | 418 | 1590 | –

From patent US20240174714A1, “TREATMENT OF SKIN DISORDERS” (priority 2021, published 2024)
